Laboratory results: US4235996A, “Bis(2-imida zolin-2-ylhydrazone)-9,10-dihydro-9,10-anthracenedicarboxaldehydes” (American Cyanamid Company, priority 1978, dated 1980)
≈ marks a conversion by molar mass, not a printed value. Where “and” joins values, the source holds several entries; their conditions need not be identical. Identical values can stand only once. Counter-ions that a name gives are not always drawn. One block for each compound: values may come before it.

Columns and labels:
[1] = test system: Staphylococcus aureus St. Paul (NYC 78-1); test: Antibacterial spectrum, agar-dilution streak-plate technique; assay type: cell-based; conditions: 37° C., 18 hours, read-out: Minimal Inhibitory Concentration
Method: (§1) The antibacterial spectrum, in terms of the concentration required to inhibit the growth of various typical bacteria, was determined in a standard manner by the agar-dilution streak-plate technique. A Steers multiple inocula replicator was used with incubation at 37° C. for 18 hours in Mueller-Ninton agar. The results for typical compounds of this invention are set forth in Table III below as the minimal inhibitory concentration in micrograms per milliliter.

[2] = test system: Staphylococcus aureus Q 74-11; test: as above; assay type: cell-based; conditions: 37° C.; for MIC: Staphylococcus aureus, Q7411, 18 h, read-out: Minimal Inhibitory Concentration
Method: as §1

[3] = test system: Staphylococcus aureus OSU 75-2; test: as above; assay type: cell-based; conditions: OSU752, 37° C., 18 hours, read-out: Minimal Inhibitory Concentration
Method: as §1

Enterococcus SM 77-15 = test: as above; assay type: cell-based; conditions: SM7715, 37° C., 18 hours, read-out: Minimal Inhibitory Concentration
Method: as §1

[4] = test system: lymphocytic leukemia P388; test: Lymphocytic leukemia P388 test (survival of transplanted mice); assay type: in vivo
Method: Lymphocytic leukemia P388 test
The animals used are mice, all of one sex, weighing a minimum of 18 g. and all within a 3 gram weight range. There are 5 or 6 animals per test group. The tumor transplant is by intraperitoneal injection of 0.1 ml. or 0.5 ml. of dilute ascitic fluid containing 10^6 cells of lymphocytic leukemia p388. The test compounds are administered intraperitoneally on days one, 5 and 9 (relative to tumor inoculation) at various doses. The animals are weighed and survivors are recorded on a regular basis for 60 days. The median survival time and the ratio of survival time for treated (T)/control (C) animals are calculated. The positive control compound is 5-fluorouracil given as an intraperitoneal injection on days one, 5 and 9. […] The criterion for efficacy is T/C×100≥125%.

melanotic melanoma B16 = test: Melanotic Melanoma B16 test (survival of transplanted mice); assay type: in vivo, C57BC/6 mice
Method: The animals used are C57BC/6 mice, all of the same sex, weighing a minimum of 17 g. and all within a 3 g. weight range. There are normally 10 animals per test group. A one-gram portion of melanotic melanoma B16 tumor is homogenized in 10 ml. of cold balanced salt solution and a 0.5 ml. aliquot of the homogenate is implanted intraperitoneally into each of the test mice. The test compounds are administered intraperitoneally on days one through 9 (relative to tumor inoculation) at various doses. The animals are weighed and survivors are recorded on a regular basis for 60 days. The median survival time and the ratio of survival time for treated (T)/control (C) animals are calculated. The positive control compound is 5-fluorouracil given as a 20 mg./kg. injection. The results of this test with representative compounds of the present invention appear in Table II below. The criterion for efficacy is T/C×100≥125%.

[5] = 3.12 mg./kg., i.p. days 1, 5 and 9
[6] = 3.12 mg./kg., i.p. days 1, 5 and 9, efficacy criterion ≥125%
[7] = 6.25 mg./kg., i.p. days 1, 5 and 9
[8] = 6.25 mg./kg., i.p. days 1, 5 and 9, efficacy criterion ≥125%
[9] = 12.5 mg./kg., i.p. days 1, 5 and 9
[10] = 12.5 mg./kg., i.p. days 1, 5 and 9, efficacy criterion ≥125%
[11] = 25 mg./kg., i.p. days 1, 5 and 9
[12] = 25 mg./kg., i.p. days 1, 5 and 9, efficacy criterion ≥125%
[13] = 3 mg./kg., i.p. days one through 9
[14] = 3 mg./kg., i.p. days one through 9, efficacy criterion ≥125%
[15] = 6 mg./kg., i.p. days one through 9
[16] = 6 mg./kg., i.p. days one through 9, efficacy criterion ≥125%
[17] = 12 mg./kg., i.p. days one through 9
[18] = 12 mg./kg., i.p. days one through 9, efficacy criterion ≥125%
[19] = 50 mg./kg., i.p. days 1, 5 and 9
[20] = 50 mg./kg., i.p. days 1, 5 and 9, efficacy criterion ≥125%
[21] = 1.5 mg./kg., i.p. days one through 9
[22] = 1.5 mg./kg., i.p. days one through 9, efficacy criterion ≥125%
[23] = 40 mg./kg., i.p. days 1, 5 and 9 (positive control)
[24] = 60 mg./kg., i.p. days 1, 5 and 9 (positive control)
[25] = 20 mg./kg. injection (positive control)

- MIC [1]: 128 µg/mL (≈ 278 µM)
- MIC [2]: 64 µg/mL (≈ 139 µM)
- MIC [3]: 128 µg/mL (≈ 278 µM)
- MIC (Enterococcus SM 77-15): 256 µg/mL (≈ 556 µM)
SMILES: COc1ccc(OC)c2c1C(C=NNC1=NCCN1)c1ccccc1C2C=NNC1=NCCN1 (centres unmarked) [1,4-Dimethoxy-bis-(2-imidazolin-2-ylhydrazone)-9,10-dihydro-9,10-anthracenedicarboxaldehyde]

SMILES: Clc1cccc2c1C(C=NNC1=NCCN1)c1ccccc1C2C=NNC1=NCCN1 (centres unmarked) [1-Chloro-bis(2-imidazolin-2-ylhydrazone)-9,10-dihydro-9,10-anthracenedicarboxaldehyde dihydrochloride]
- Median Survival [4, 5]: 15.5 days
- T/C × 100 [4, 6]: 163%
- Median Survival [4, 7]: 16.5 days
- T/C × 100 [4, 8]: 174%
- Median Survival [4, 9]: 19.5 days
- T/C × 100 [4, 10]: 205%
- Median Survival [4, 11]: 21.0 days
- T/C × 100 [4, 12]: 221%
- Median Survival (melanotic melanoma B16; [13]): 22.0 days
- T/C × 100 (melanotic melanoma B16; [14]): 129%
- Median Survival (melanotic melanoma B16; [15]): 25.5 days
- T/C × 100 (melanotic melanoma B16; [16]): 150%
- Median Survival (melanotic melanoma B16; [17]): 31.0 days
- T/C × 100 (melanotic melanoma B16; [18]): 182%

SMILES: Clc1ccc2c(c1)C(C=NNC1=NCCN1)c1ccccc1C2C=NNC1=NCCN1 (centres unmarked) [2-Chloro-bis(2-imidazolin-2-ylhydrazone)-9,10-dihydro-9,10-anthracenedicarboxaldehyde dihydrochloride]
- Median Survival [4, 5]: 17.5 days
- T/C × 100 [4, 6]: 175%
- Median Survival [4, 7]: 18.5 days
- T/C × 100 [4, 8]: 185%
- Median Survival [4, 9]: 18.0 days
- T/C × 100 [4, 10]: 180%
- Median Survival [4, 11]: 18.0 days
- T/C × 100 [4, 12]: 180%
- Median Survival [4, 19]: 20.0 days
- T/C × 100 [4, 20]: 200%

SMILES: Cc1ccc2c(c1)C(C=NNC1=NCCN1)c1ccccc1C2C=NNC1=NCCN1 (centres unmarked) [2-Methyl-bis(2-imidazolin-2-ylhydrazone)-9,10-dihydro-9,10-anthracenedicarboxaldehyde dihydrochloride]
- Median Survival [4, 5]: 13.5 days
- T/C × 100 [4, 6]: 142%
- Median Survival [4, 7]: 14.5 days
- T/C × 100 [4, 8]: 153%
- Median Survival [4, 9]: 16.0 days
- T/C × 100 [4, 10]: 168%
- Median Survival [4, 11]: 16.0 days
- T/C × 100 [4, 12]: 168%
- Median Survival [4, 19]: 19.0 days
- T/C × 100 [4, 20]: 200%
- Median Survival (melanotic melanoma B16; [21]): 24.0 days
- T/C × 100 (melanotic melanoma B16; [22]): 141%
- Median Survival (melanotic melanoma B16; [13]): 25.0 days
- T/C × 100 (melanotic melanoma B16; [14]): 147%
- Median Survival (melanotic melanoma B16; [15]): 28.0 days
- T/C × 100 (melanotic melanoma B16; [16]): 165%
- Median Survival (melanotic melanoma B16; [17]): 33.5 days
- T/C × 100 (melanotic melanoma B16; [18]): 197%

SMILES: O=c1[nH]cc(F)c(=O)[nH]1 [5-Fluorouracil, reference compound]
- Median Survival [4, 23]: 19.0 days and 18 days
- T/C × 100 [4, 23]: 181% and 164%
- Median Survival [4, 24]: 15.0 days and 18.5 days
- T/C × 100 [4, 24]: 158% and 185%
- T/C × 100 ([4]; mouse, in vivo, ip): 158
- Median Survival (melanotic melanoma B16; [25]): 30 days and 28.5 days
- T/C × 100 (melanotic melanoma B16; [25]): 187% and 168%

SMILES: C(=NNC1=NCCN1)C1c2ccccc2C(C=NNC2=NCCN2)c2ccccc21 (centres unmarked) [Bis(2-imidazolin-2-ylhydrazone)-9,10-dihydro-9,10-anthracenedicarboxaldehyde dihydrochloride]
- Median Survival ([4]; 6.25 mg./kg., i.p. days 1, 5 and 9, dihydrochloride): 13 days
- T/C × 100 [4, 8]: 129%
- Median Survival ([4]; 12.5 mg./kg., i.p. days 1, 5 and 9, dihydrochloride): 16 days
- T/C × 100 [4, 10]: 152%
- Median Survival (melanotic melanoma B16; [21]): 21.0 days
- T/C × 100 (melanotic melanoma B16; [22]): 131%
- Median Survival (melanotic melanoma B16; [13]): 22.0 days
- T/C × 100 (melanotic melanoma B16; [14]): 138%
- Median Survival (melanotic melanoma B16; [15]): 25.0 days
- T/C × 100 (melanotic melanoma B16; [16]): 156%
- Median Survival (melanotic melanoma B16; [17]): 32.0 days
- T/C × 100 (melanotic melanoma B16; [18]): 200%

SMILES: C(=NNC1=NCCN1)C1c2ccccc2C(C=NNC2=NCCN2)c2ccccc21 (centres unmarked) [Bis(2-imidazolin-2-ylhydrazone)-9,10-dihydro-9,10-anthracenedicarboxaldehyde]
- Median Survival [4, 5]: 14 days
- T/C × 100 [4, 6]: 127%
- Median Survival [4, 7]: 16.5 days
- T/C × 100 [4, 8]: 150%
- Median Survival [4, 9]: 16.5 days
- T/C × 100 [4, 10]: 150%
- Median Survival [4, 11]: 17.5 days
- T/C × 100 [4, 12]: 159%
- Median Survival [4, 19]: 20 days
- T/C × 100 [4, 20]: 182%
- Median Survival ([4]; 100 mg./kg., i.p. days 1, 5 and 9): 19.5 days
- T/C × 100 ([4]; 100 mg./kg., i.p. days 1, 5 and 9, efficacy criterion ≥125%): 177%
- Median Survival ([4]; 200 mg./kg., i.p. days 1, 5 and 9): 23 days
- Median Survival ([4]; 400 mg./kg., i.p. days 1, 5 and 9): 25 days
- T/C × 100 ([4]; 400 mg./kg., i.p. days 1, 5 and 9, efficacy criterion ≥125%): 227%
- T/C × 100 ([4]; mouse, in vivo, ip): 209
- MIC [1]: 64 µg/mL (≈ 160 µM)
- MIC [2]: 32 µg/mL (≈ 79.9 µM)
- MIC [3]: 128 µg/mL (≈ 320 µM)
- MIC (Enterococcus SM 77-15): 16 µg/mL (≈ 40 µM)

SMILES: COc1ccc(OC)c2c1C(C=NNC1=NCCN1)c1ccccc1C2C=NNC1=NCCN1 (centres unmarked) [Bis-(2-imidazolin-2-ylhydrazone)-1,4-dimethoxy-9,10-dihydro-9,10-anthracenedicarboxaldehyde dihydrochloride]
- Minimal Inhibitory Concentration ([2]; 18 hours, dihydrochloride): 128 µg/mL
